Test results as given in ChEMBL document CHEMBL1151581, “New dipeptide isosteres useful for the inhibition of HIV-1 protease” (Bioorg Med Chem Lett, 1994).

system: CCRF-CEM; experiment: Concentration required for antiviral activity using infected CEM cells; format: functional, cell-based; settings: Homo sapiens

| SMILES | IC50 |
| --- | --- |
| CC(C)(C)NC(=O)c1c(C[C@@H](O)[C@H](Cc2ccccc2)NC(=O)[C@H](CC(N)=O)NC(=O)c2ccc3ccccc3n2)ccc2ccccc12 | 190 nM |
| Cc1cccc(C[C@@H](O)[C@H](Cc2ccccc2)NC(=O)[C@H](CC(N)=O)NC(=O)c2ccc3ccccc3n2)c1C(=O)NC(C)(C)C | 920 nM |
| Cc1ccc(C[C@@H](O)[C@H](Cc2ccccc2)NC(=O)[C@H](CC(N)=O)NC(=O)c2ccc3ccccc3n2)c(C(=O)NC(C)(C)C)c1 | 20 nM |
| CC(C)(C)NC(=O)c1cc2ccccc2cc1C[C@@H](O)[C@H](Cc1ccccc1)NC(=O)[C@H](CC(N)=O)NC(=O)c1ccc2ccccc2n1 | 980 nM |
| Cc1ccc(C(=O)NC(C)(C)C)c(C[C@@H](O)[C@H](Cc2ccccc2)NC(=O)[C@H](CC(N)=O)NC(=O)c2ccc3ccccc3n2)c1 | 610 nM |

target: Human immunodeficiency virus type 1 protease (Human immunodeficiency virus 1, UniProt Q72874); experiment: Concentration required for in vitro inhibition of HIV-1 protease; settings: not given

| SMILES | IC50 |
| --- | --- |
| CC(C)(C)NC(=O)c1c(C[C@@H](O)[C@H](Cc2ccccc2)NC(=O)[C@H](CC(N)=O)NC(=O)c2ccc3ccccc3n2)ccc2ccccc12 | 3.5 nM |
| Cc1cccc(C[C@@H](O)[C@H](Cc2ccccc2)NC(=O)[C@H](CC(N)=O)NC(=O)c2ccc3ccccc3n2)c1C(=O)NC(C)(C)C | 28 nM |
| CC(C)(C)NC(=O)c1cc2ccccc2cc1C[C@@H](O)[C@H](Cc1ccccc1)NC(=O)[C@H](CC(N)=O)NC(=O)c1ccc2ccccc2n1 | 149 nM |
| Cc1ccc(C(=O)NC(C)(C)C)c(C[C@@H](O)[C@H](Cc2ccccc2)NC(=O)[C@H](CC(N)=O)NC(=O)c2ccc3ccccc3n2)c1 | 2.2 nM |
